# Measurements reported in patent US6894075B2, “4′-demethyl-4′-O-substituted-1-deoxypodophyllotoxin derivative and geometric isomer thereof, process for the preparation thereof and anti-cancer composition comprising the same” (priority 2000, dated 2005).
# Key:
# A549 cell = test: Cytotoxicity test (SRB method) for A549 cells; assay type: cell-based, human; settings: A549, SRB, 48 hours incubation, Table 2
# From the text: (§1) Human lung carcinomas A549 and […] were used for determining cytotoxicity of the compounds of the present invention according to the Sulfrhodamine-B (SRB) method which was developed by NCI in 1989 in order to determine in vitro anticancer activity of drugs.
# (§2) Cells to be used in the experiment were separated from a surface using 0.5% Trypsin-EDTA solution and suspended in a density of 5×10^4 cell/ml therein. The cell suspension was introduced into a 96-well plate in an amount of 180/well and incubated for 24 hours in a 5% CO2 incubator of 37° C. Samples were dissolved in dimethylsulfoxide and then diluted by water distilled in advance for three times just before the experiment. Forty-one (41) samples were prepared into 4 types of final concentrations, i.e., 0.1, 0.03, 0.01 and 0.003 mg per ml of the medium. The diluted sample solutions were added to the 96-well plate in the amount of 20 μl/well and incubated for 48 hours in a CO2 incubator of 37° C. At the time of adding the samples, Tz (Time zero) plate was taken. The medium was removed from the Tz plate and each of the plates after incubation were completed. Ten (10)% […] (TCA) was added in the amount of […], and allowed to stand for 1 hour at 4° C. to fix the cells on the bottom surface of the plate. After the cells were fixed, the plate was washed five to six times with water to completely remove the remaining TCA solution and then dried at room temperature to completely remove the moisture. To the fully dried plate was introduced a dye solution in the amount of […] in which 0.4% SRB was dissolved in 1% acetic acid solution. […] After the dyeing process, the plate was dried again at room temperature. 100 ml of 10 mM Tris solution was added thereto in order to dissolve the dye, and then O.D. (optical density) was determined by microplate reader at 520 nm.
# (§3) ED50 values for cancer cells were calculated as follows. The amount of SRB protein was analyzed at the time when incubation started by the addition of the sample. This amount was named time zero (Tz). The O.D. value obtained from a group which was not treated by the sample was named Control group (C) and the O.D. value obtained from a group which was treated by the sample was named Test group (T).
# (§4) The degree of cytotoxicity of the compounds was calculated from Tz, C and T values according to the following equation.
# (§5) That is, in the case of Tz≧T, the degree was calculated by
# (§6) (T−Tz)/(C−Tz)×100(%), and
# (§7) • in the case of Tz<T, the degree was calculated by […].
# (§8) From the values thus obtained, ED50 value which is defined as the concentration at which growth of the cancer cell is inhibited by 50% was calculated using the regression function of Excel program.
# SK-MEL-2 cell = test: Cytotoxicity test (SRB method) for SK-MEL-2 cells; assay type: cell-based, human; settings: SK-MEL-2, SRB, 48 hours incubation
# From the text: as §1, §2, §3, §4, §5, §6, §7, §8
smiles,measurement,setting,value
"CCCCCC/C=C\CCCCCCCC(=O)Oc1c(OC)cc(C2c3cc4c(cc3CC3COC(=O)C32)OCO4)cc1OC (stereo not drawn) [Compound 1c-14, 4′-demethyl-4′-O-(cis-9′-hexadecenoyl)-1-deoxypodophyllo-toxin]",ED50(mg/mL) for A549,A549 cell,0.733 mg/mL
same,ED50(mg/mL) for SK-MEL-2,SK-MEL-2 cell,0.065 mg/mL
"CCCCCCCCCCCCCCCCCC(=O)Oc1c(OC)cc(C2c3cc4c(cc3CC3COC(=O)C32)OCO4)cc1OC (stereo not shown) [Compound 1c-15, 4′-demethyl-4′-O-octadecanoyl-1-deoxypodophyllotoxin]",ED50(mg/mL) for A549,A549 cell,2.670 mg/mL
same,ED50(mg/mL) for SK-MEL-2,SK-MEL-2 cell,>5 mg/mL
"CCCCCCCC/C=C\CCCCCCCC(=O)Oc1c(OC)cc(C2c3cc4c(cc3CC3COC(=O)C32)OCO4)cc1OC (stereo not drawn) [Compound 1c-16, 4′-demethyl-4′-O-(cis-9′-octadecenoyl)-1-deoxypodophyllo-toxin]",ED50(mg/mL) for A549,A549 cell,0.179 mg/mL
same,ED50(mg/mL) for SK-MEL-2,SK-MEL-2 cell,0.159 mg/mL
"CCCCCCCC/C=C/CCCCCCCC(=O)Oc1c(OC)cc(C2c3cc4c(cc3CC3COC(=O)C32)OCO4)cc1OC (stereo not drawn) [Compound 1c-17, 4′-demethyl-4′-O-(trans-9′-octadecenoyl)-1-deoxypodophyllo-toxin]",ED50(mg/mL) for A549,A549 cell,0.367 mg/mL
same,ED50(mg/mL) for SK-MEL-2,SK-MEL-2 cell,0.550 mg/mL
"CCCCCC/C=C\CCCCCCCCCC(=O)Oc1c(OC)cc(C2c3cc4c(cc3CC3COC(=O)C32)OCO4)cc1OC (stereo not drawn) [Compound 1c-18, 4′-demethyl-4′-O-(cis-11′-octadecenoyl)-1-deoxypodophyllo-toxin]",ED50(mg/mL) for A549,A549 cell,0.335 mg/mL
same,ED50(mg/mL) for SK-MEL-2,SK-MEL-2 cell,0.057 mg/mL
"CCCCCC/C=C/CCCCCCCCCC(=O)Oc1c(OC)cc(C2c3cc4c(cc3CC3COC(=O)C32)OCO4)cc1OC (stereo not drawn) [Compound 1c-19, 4′-demethyl-4′-O-(trans-11′-octadecenoyl)-1-deoxypodophyllo-toxin]",ED50(mg/mL) for A549,A549 cell,1.010 mg/mL
same,ED50(mg/mL) for SK-MEL-2,SK-MEL-2 cell,0.253 mg/mL
"CCCCC/C=C\C/C=C\CCCCCCCC(=O)Oc1c(OC)cc(C2c3cc4c(cc3CC3COC(=O)C32)OCO4)cc1OC (stereo not drawn) [Compound 1c-20, 4′-demethyl-4′-O-(cis-9′,12′-octadecadienoyl)-1-deoxypodophyllo-toxin]",ED50(mg/mL) for A549,A549 cell,0.090 mg/mL
same,ED50(mg/mL) for SK-MEL-2,SK-MEL-2 cell,0.030 mg/mL
"CCCCC/C=C/C/C=C/CCCCCCCC(=O)Oc1c(OC)cc(C2c3cc4c(cc3CC3COC(=O)C32)OCO4)cc1OC (stereo not drawn) [Compound 1c-21, 4′-demethyl-4′-O-(trans-9′,12′-octadecadienoyl)-1-deoxypodophyllo-toxin]",ED50(mg/mL) for A549,A549 cell,0.259 mg/mL
same,ED50(mg/mL) for SK-MEL-2,SK-MEL-2 cell,0.110 mg/mL
"CC/C=C\C/C=C\C/C=C\CCCCCCCC(=O)Oc1c(OC)cc(C2c3cc4c(cc3CC3COC(=O)C32)OCO4)cc1OC (stereo not drawn) [Compound 1c-22, 4′-demethyl-4′-O-(cis-9′,12′,15′-octadecatrienoyl)-1-deoxypodophyllotoxin]",ED50(mg/mL) for A549,A549 cell,0.084 mg/mL
same,ED50(mg/mL) for SK-MEL-2,SK-MEL-2 cell,0.048 mg/mL
"CCCCC/C=C\C/C=C\C/C=C\CCCCC(=O)Oc1c(OC)cc(C2c3cc4c(cc3CC3COC(=O)C32)OCO4)cc1OC (stereo not drawn) [Compound 1c-23, 4′-demethyl-4′-O-(cis-6′,9′,12′-octadecatrienoyl)-1-deoxypodophyllotoxin]",ED50(mg/mL) for A549,A549 cell,0.085 mg/mL
same,ED50(mg/mL) for SK-MEL-2,SK-MEL-2 cell,0.041 mg/mL
"CCCCCCCCCCCCCCCCCCCC(=O)Oc1c(OC)cc(C2c3cc4c(cc3CC3COC(=O)C32)OCO4)cc1OC (stereo not shown) [Compound 1c-24, 4′-demethyl-4′-O-eicosanoyl-1-deoxypodophyllotoxin]",ED50(mg/mL) for A549,A549 cell,>5 mg/mL
same,ED50(mg/mL) for SK-MEL-2,SK-MEL-2 cell,>5 mg/mL
"CCCCCCCC/C=C\CCCCCCCCCC(=O)Oc1c(OC)cc(C2c3cc4c(cc3CC3COC(=O)C32)OCO4)cc1OC (stereo not drawn) [Compound 1c-25, 4′-demethyl-4′-O-(cis-11′-eicosenoyl)-1-deoxypodophyllotoxin]",ED50(mg/mL) for A549,A549 cell,>5 mg/mL
same,ED50(mg/mL) for SK-MEL-2,SK-MEL-2 cell,>5 mg/mL
"CCCCCCCC/C=C/CCCCCCCCCC(=O)Oc1c(OC)cc(C2c3cc4c(cc3CC3COC(=O)C32)OCO4)cc1OC (stereo not drawn) [Compound 1c-26, 4′-demethyl-4′-O-(trans-11′-eicosenoyl)-1-deoxypodophyllotoxin]",ED50(mg/mL) for A549,A549 cell,1.660 mg/mL
same,ED50(mg/mL) for SK-MEL-2,SK-MEL-2 cell,1.130 mg/mL
"CCCCC/C=C\C/C=C\CCCCCCCCCC(=O)Oc1c(OC)cc(C2c3cc4c(cc3CC3COC(=O)C32)OCO4)cc1OC (stereo not drawn) [Compound 1c-27, 4′-demethyl-4′-O-(cis-11′,14′-eicosadienoyl)-1-deoxypodophyllotoxin]",ED50(mg/mL) for A549,A549 cell,0.870 mg/mL
same,ED50(mg/mL) for SK-MEL-2,SK-MEL-2 cell,0.347 mg/mL
"CCCCC/C=C\C/C=C\C/C=C\C/C=C\CCCC(=O)Oc1c(OC)cc(C2c3cc4c(cc3CC3COC(=O)C32)OCO4)cc1OC (stereo not drawn) [Compound 1c-28, 4′-demethyl-4′-O-(cis-5′,8′,11′,14′-eicosatetraenoyl)-1-deoxypodophyllotoxin]",ED50(mg/mL) for A549,A549 cell,0.910 mg/mL
same,ED50(mg/mL) for SK-MEL-2,SK-MEL-2 cell,0.184 mg/mL
"CCCCCCCCCCCCCCCCCCCCCC(=O)Oc1c(OC)cc(C2c3cc4c(cc3CC3COC(=O)C32)OCO4)cc1OC (stereo not shown) [Compound 1c-29, 4′-demethyl-4′-O-docosanoyl-1-deoxypodophyllotoxin]",ED50(mg/mL) for A549,A549 cell,>5 mg/mL
same,ED50(mg/mL) for SK-MEL-2,SK-MEL-2 cell,>5 mg/mL
"CCCCCCCC/C=C\CCCCCCCCCCCC(=O)Oc1c(OC)cc(C2c3cc4c(cc3CC3COC(=O)C32)OCO4)cc1OC (stereo not drawn) [Compound 1c-30, 4′-demethyl-4′-O-(cis-13′-docosenoyl)-1-deoxypodophyllotoxin]",ED50(mg/mL) for A549,A549 cell,2.710 mg/mL
same,ED50(mg/mL) for SK-MEL-2,SK-MEL-2 cell,0.561 mg/mL
"CC/C=C\C/C=C\C/C=C\C/C=C\C/C=C\C/C=C\CCC(=O)Oc1c(OC)cc(C2c3cc4c(cc3CC3COC(=O)C32)OCO4)cc1OC (stereo not drawn) [Compound 1c-31, 4′-demethyl-4′-O-(cis-4′,7′,10′,13′,16′,19′-docohexaenoyl)-1-deoxypodophyllotoxin]",ED50(mg/mL) for A549,A549 cell,0.119 mg/mL
same,ED50(mg/mL) for SK-MEL-2,SK-MEL-2 cell,0.035 mg/mL
"COc1cc(C2c3cc4c(cc3CC3COC(=O)C32)OCO4)cc(OC)c1OC(=O)/C=C(C)/C=C/C=C(C)/C=C/C1=C(C)CCCC1(C)C (stereo not shown) [Compound 1c-32, 4′-demethyl-4′-O-retinoyl-1-deoxypodophyllotoxin]",ED50(mg/mL) for A549,A549 cell,2.130 mg/mL
same,ED50(mg/mL) for SK-MEL-2,SK-MEL-2 cell,0.387 mg/mL
"COc1cc(C2c3cc4c(cc3CC3COC(=O)C32)OCO4)cc(OC)c1OC(=O)CCCCC(=O)O (stereo not shown) [Compound 1c-33, 4′-demethyl-4′-O-(5′-carboxy-pentanoyl)-1-deoxypodophyllotoxin]",ED50(mg/mL) for A549,A549 cell,0.258 mg/mL
same,ED50(mg/mL) for SK-MEL-2,SK-MEL-2 cell,0.062 mg/mL
"COc1cc(C2c3cc4c(cc3CC3COC(=O)C32)OCO4)cc(OC)c1OC(=O)CCCCCCC(=O)O (stereo not shown) [Compound 1c-34, 4′-demethyl-4′-O-(7′-carboxy-heptanoyl)-1-deoxypodophyllotoxin]",ED50(mg/mL) for A549,A549 cell,0.175 mg/mL
same,ED50(mg/mL) for SK-MEL-2,SK-MEL-2 cell,0.066 mg/mL
"COc1cc(C2c3cc4c(cc3CC3COC(=O)C32)OCO4)cc(OC)c1OC(=O)CCCCCCCCC(=O)O (stereo not shown) [Compound 1c-35, 4′-demethyl-4′-O-(9′-carboxy-nonanoyl)-1-deoxypodophyllotoxin]",ED50(mg/mL) for A549,A549 cell,0.014 mg/mL
same,ED50(mg/mL) for SK-MEL-2,SK-MEL-2 cell,0.015 mg/mL
"COc1cc(C2c3cc4c(cc3CC3COC(=O)C32)OCO4)cc(OC)c1OC(=O)CCCCCCCCCCC(=O)O (stereo not shown) [Compound 1c-36, 4′-demethyl-4′-O-(11′-carboxy-undecanoyl)-1-deoxypodophyllotoxin]",ED50(mg/mL) for A549,A549 cell,0.046 mg/mL
same,ED50(mg/mL) for SK-MEL-2,SK-MEL-2 cell,0.068 mg/mL
